The source of these data is publication PMC12125420, “Yinling Qushi Granule as a therapeutic agent for metabolic syndrome: pharmacological, molecular targets, and pharmacokinetic insights” (Advanced Biotechnology, 2025).

The structures appear in SMILES notation.

Test in the first data set: not given
To be noted: rat, in vivo.
Consider `CC(C)=CC1CC(C2CCC3(C)C4=CCC5C(C)(CCC(O)C5(C)C)C4=CCC23C)C(=O)O1` (stereo not drawn) [Porilactone A], for which the “Absorption pattern of serum concentration-time curve” value is “double-peak absorption pattern”.

The nature of the next data set: in vivo. To be noted: male, Sprague-Dawley, rat, po, 36.99 g/kg.
Description: (§1) SPF grade Sprague–Dawley rats (n = 6, male, 8–10-week-old, 300 ± 20 g) were obtained from the Guangdong Medical Laboratory Animal Center (Guangzhou, China, Certificate No. SCXK 2022–0002), maintained in environmental conditions with a temperature of 20–25 °C, humidity of 55 ± 15%, and a 12-h light/dark cycle. Animals were acclimated for 7 days prior to drug administration. The experimental procedures and protocols have been approved by the Animal Ethics Committee of the School of Life Sciences, Sun Yat-sen University (Ethics approval No. SYSU-lS-IACUC- 2024–0130, Guangzhou, China), with every effort being made to minimize the suffering of the animals.
(§2) In order to investigate the absorbable components in vivo, Yinling Qushi (YLQS) extract was prepared as follows: 77.76 g of Poria cocos (Schw.) Wolf (Fuling, FL), 29.16 g of Atractylodes macrocephala Koidz. (Baizhu, BZ), 12.96 g of Zingiber officinale Rosc. (Ganjiang, GJ), 19.44 g of Polyporus umbellatus (Pers.) Fries (Zhuling, ZL), 19.44 g of Cinnamomum cassia Presl (Guizhi, GZ), 24.30 g Artemisia capillaris Thunb. (Yinchen, YC), 19.44 g Glehnia littoralis Fr.Schmidt ex Miq. (Beishashen, BSS) and 19.44 g of Glycyrrhiza uralensis Fisch. (Gancao, GC) were weighted. The weighted herbs were mixed thoroughly and extracted with 750 mL boiling water for 1 h, twice. The aqueous extracts were combined, filtered, and concentrated by rotary evaporation to a total volume of 12 mL, with a final extraction yield of 18.5 g crude herbal materials per 1 mL of Yinling Qushi (YLQS) extract.
(§3) SD Rats were fasted for 12 h, followed by orally administrated with Yinling Qushi (YLQS) extract at a dose of 36.99 g/kg (6.7 mL/kg). 200 μL of venous blood was collected at 0 min, 15 min, 30 min, 1 h, 2 h, 4 h, 6 h, 8 h, 10 h, 12 h, and 24 h post-gavage. Serum samples were freshly prepared by centrifugation (3,000 g, 20 min, 4 ℃), supernatant collection and storage at − 80 ℃ till analysis.
(§4) For serum extraction, 90 μL serum of indicated time points were pre-mixed with 10 μL IS working solution (myristic acid-D27, 10 μg/mL in methanol). 1 mL ethyl acetate was added to 100 μL premixed serum, vortexed vigorously for 5 min, and centrifuged (10,000 g, 15 min, 4 ℃) for protein precipitation. 700 μL of supernatant was transferred and evaporated to dryness under nitrogen flow. Prior to assay, samples were re-suspended with 100 μL methanol: distill water solution (4:1, v/v), sonicated and vortex-mixing for dissolve completely, and centrifuged (10,000 g, 20 min, 4 ℃). 10 μL of supernatant was analyzed using a connected system of AQUITY UPLC (Waters Corp., Milford, MA, USA) hybrid ZenoTOF 7600-MS/MS system (AB Sciex, Framingham, MA, USA) with electrospray ionization (ESI) source.
(§5) A reversed-phase Kinetex C18 column (2.1 × 100 mm, 2.6 μm, Phenomenex, CA, USA) was used, with 0.3 mL/min flow rate at 40 ℃. The mobile phase consisted of an aqueous solvent A (0.1% formic acid, v/v) and organic solvent B (acetonitrile with 0.1% formic acid, v/v). The elution gradient was as follows: 5–30% B (0–20 min); 30–95% B (20–27 min), maintained at 95% B (27–32 min); 95–5% B (32–33 min); and 5% B (33–38 min) to equilibrate the system.
(§6) The instrumental parameters of mass spectrometry were as follows: ion source gas 1 and gas 2 were both 55 psi, curtain gas was 35 psi, the CAD gas was 8 psi, and the ion source temperature was 550 °C. The ion spray voltage floating (ISVF) was set to 5500 V for positive mode and − 4500 V for negative mode. The collision energy (CE) and collision energy spread (CES) were set to 35 V and 15 eV, and declustering potential was 80 V. The mass-to-charge ratio (m/z) range was set to 50–1500 Da, with an accumulation time of 0.15 s. Data were collected by SCIEX OS software (version 3.3.0.12027, AB Sciex, Framingham, MA, USA) in information-dependent acquisition (IDA) mode.
With `CC(C)=CCCC(C(=O)O)C1C(O)CC2(C)C3=CCC4C(C)(CCC(O)C4(C)C)C3=CCC12C` (stereo not drawn) [16alpha-Hydroxydehydrotrametenolic acid], the total exposure AUC(0-inf) was determined as 136000 ng·h/mL, the exposure AUC(0-t) was found to be 136000 ng·h/mL, the Cmax came to 16800 ng/mL and the time to peak (Tmax) came out at 4.4 ± 0.75 h. The half-life is 1.78 ± 0.09 h.

Consider `CC(C)C(=O)CCC(C(=O)O)C1C(O)CC2(C)C3=C(CCC12C)C1(C)CCC(O)C(C)(C)C1CC3` (stereo not drawn) [Daedaleanic acid B], for which the AUC(0-inf) was 170 ± 27.6 ng·h/mL, the AUC(0-t) came to 129 ± 32.5 ng·h/mL, the concentration peaked (Cmax) at 20.6 ± 0.8 ng/mL and the Tmax is 1.35 ± 0.68 h. Further, the half-life was 3.84 ± 0.75 h.

Turning to `CC(=CCCC(C(=O)O)C1C(O)CC2(C)C3=CCC4C(C)(CCC(O)C4(C)C)C3=CCC12C)CO` (stereo not drawn) [Dihydroxydehydrotrametenoic acid], the AUC(0-inf) turned out to be 3270 ± 142 ng·h/mL, the AUC(0-t) was 3030 ± 356 ng·h/mL, the Cmax was determined as 308 ± 35.6 ng/mL and the Tmax was determined as 4.4 ± 0.75 h. For the same compound, the half-life was 4.98 ± 1.07 h.

Take `CC(C)=CC1CC(C2CCC3(C)C4=CCC5C(C)(CCC(O)C5(C)C)C4=CCC23C)C(=O)O1` (stereo not drawn) [Porilactone A]: the AUC(0-inf) is 9200 ± 744 ng·h/mL, the AUC(0-t) was 9460 ± 501 ng·h/mL, the Cmax was 846 ± 31.9 ng/mL and the time to peak (Tmax) is 6.5 ± 1.89 h. The compound further had a half-life of 2.15 ± 0.24 h.

Another data set is described as follows: Pharmacokinetics of absorbed triterpenoid prototypes in rat serum after oral YLQS extract. To be noted: male, Sprague-Dawley, 36.99 g/kg.
Description: as §1, §2, §3, §4, §5, §6
Consider `C=C(C)C1CC=C2C(=CCC3(C)C(C(CCC=C(C)C)C(=O)O)CCC23C)C1(C)CCC(=O)O` (stereo not drawn) [16-Deoxyporicoic acid B], for which the AUC(0-inf) came out at 2540 ± 264 ng·h/mL, the AUC(0-t) turned out to be 1970 ± 280 ng·h/mL, the Cmax was 290 ± 44.5 ng/mL and the Tmax worked out at 5.6 ± 0.75 h. The compound also gave a half-life of 4.95 ± 0.81 h.

`C=C(C)[C@@H]1CC=C2C(=CC[C@]3(C)[C@@H]([C@@H](CCC=C(C)C)C(=O)O)[C@H](O)C[C@@]23C)[C@@]1(C)CCC(=O)O` [Poricoic acid B]: the total exposure AUC(0-inf) worked out at 2290 ± 621 ng·h/mL, the AUC(0-t) turned out to be 2710 ± 417 ng·h/mL, the highest concentration (Cmax) was determined as 214 ± 53.8 ng/mL and the time of peak concentration (Tmax) was 5.5 ± 0.96 h. The half-life was 4.11 ± 0.82 h.

For `C=C(C)[C@@H]1CC=C2C(=CC[C@]3(C)[C@@H]([C@@H](CCC(=C)C(C)(C)O)C(=O)O)[C@H](O)C[C@@]23C)[C@@]1(C)CCC(=O)OC` [Poricoic acid DM], the area under the curve AUC(0-inf) stood at 105 ± 13.6 ng·h/mL, the AUC(0-t) came out at 77.1 ± 12.4 ng·h/mL, the peak level (Cmax) was 13.2 ± 2 ng/mL and the Tmax was found to be 4 ± 1.41 h. In addition, the half-life is 4.61 ± 1.21 h.

Take `C=C(C)C1CC=C2C(=CCC3(C)C(C(CCC(=C)C(C)(C)O)C(=O)O)C(O)CC23C)C1(C)CCC(=O)O` (stereo not drawn) [Poricoic acid D]: the total exposure AUC(0-inf) stood at 82 ± 5.1 ng·h/mL, the exposure AUC(0-t) is 68 ± 10.1 ng·h/mL, the peak concentration (Cmax) was 7.5 ± 1.3 ng/mL and the Tmax is 6.4 ± 1.72 h. The compound further had a half-life of 5.51 ± 0.88 h.

On to `C=C(C)C1CC=C2C(=CCC3(C)C(C(CCC=C(C)CO)C(=O)O)C(O)CC23C)C1(C)CCC(=O)O` (stereo not drawn) [Poricoic acid E], for which the AUC(0-inf) worked out at 223 ± 30.6 ng·h/mL, the AUC(0-t) is 205 ± 25.1 ng·h/mL, the Cmax amounted to 16 ± 2.7 ng/mL and the time to peak (Tmax) was 8.5 ± 1.5 h. For the same compound, the half-life was 6.64 ± 0.75 h.

`C=C(C)[C@@H]1CCC2=C(CC[C@]3(C)[C@@H]([C@@H](CCC=C(C)C)C(=O)O)[C@H](O)C[C@@]23C)[C@@]1(C)CCC(=O)O` [Poricoic acid G]: the AUC(0-inf) stood at 4420 ± 367 ng·h/mL, the AUC(0-t) was found to be 4090 ± 442 ng·h/mL, the concentration peaked (Cmax) at 470 ± 89.2 ng/mL and the Tmax worked out at 5.5 ± 0.96 h. For the same compound, the half-life was 3.5 ± 1.08 h.

For orientation: AUC(0-inf) means total exposure, with the tail of the curve extrapolated. Low readings indicate less exposure, high ones more exposure. By AUC(0-t) is commonly meant exposure summed from dosing to a finite time, without extrapolation to infinity. High values mean more exposure, low ones less exposure. One may read the Cmax as the peak of the concentration-time curve. Broadly, the Tmax is the time at which the peak concentration occurs. What is called half-life is how long it takes for the measured level to halve. Read a low half-life as fast loss.
